Data from patent US7129213B2, “Tripeptides and tripeptide derivatives for the treatment of neurodegenerative diseases” (Neurotell AG, priority 2002, dated 2006).
Structures can show the parent of a compound that is named as a salt. Where a SMILES comes first, the peptide text is derived from it.

What was measured:
[1] = tested on: rats pretreated with orally administered dexamethasone; experiment: Dexamethasone model, sound avoidance conditioning; type: in vivo, rat
Experimental: (§1) 20 rats were orally administered 50 mg/kg/day of dexamethasone over a period of 21 days. At Day 19, the animals were chloralized (360 mg/kg), and a catheter was placed into the carotid artery as described above. At Day 21, the animals were randomly divided into two groups: • one group of 10 rats received an intracarotid injection of 1 ml/kg/day of normal saline for a period of 10 days (controls). • one group of 10 rats received 20 mg/kg/day of HCl-Gly-Phe-PrONH2 dissolved in normal saline for a period of 10 days. The injections were given at 9.00 a.m.
During the last five days of treatment, the rats were placed under the common learning conditions of the three models between 10.00 a.m. and 11.00 a.m. (see below).
(§2) During the last five days of treatment, at 10.00 a.m. (1 hour after the administration of HCl-Gly-Phe-ProNH2), the animals were placed into a learning cage for sound avoidance conditioning (Conditioning avoidance response). The animals learned to climb a pole first to escape from and then to avoid an electric shock. This method was standardized and quantified in our laboratory (see Le Poncin M., Lafitte J. C., Rapin J. R., Sound Avoidance Conditioning and a Mathematical approach to the description of acquisition performance, Math. Biosciences 59 (1982) 242–268).
(§3) For a period of five days, the animals were placed everyday under these learning conditions for a total of ten tests a day. Results are expressed as percentage of adequate responses, and the kinetics of the responses is represented by a multi-exponential maximum curve.
(§4) The curve maximum represents the learning capacities. The slope of the curve evaluates the learning speed. The area under the curve (AUC) represents a good evaluation of all conditioning parameters. The maximum value of the area under the curve is 500, if the animals show 100% adequate responses as early as Day 0. In fact, an average area under the curve is calculated per day, what amounts to a maximum value of 100. In the absolute control animals, this average area under the curve is equal to 40+/−4.

[2] = PAMPA
Source text: The Parallel Artificial Membrane Permeation Assay system (PAMPA) is a simple and fast method for the prediction of gastrointestinal drug absorption. Drug permeation of biological cell layers is mainly related to passive diffusion processes. The PAMPA method measures the permeation of potential new drugs across an artificial membrane by passive diffusion and allows a classification into low, medium and high absorbers.
The artificial membrane was built up by pipetting a solution of lecithine in organic solvent on a supporting filter material in 96-well plates. For all test compounds, stock solutions of 5 mM were prepared in ethanol. They were then diluted in Tris-buffer (0.05 M, pH 7,4) to a final concentration of 500 μM. Permeation rates of all test compounds were measured in triplicate or quadruplicate. Diffusion time across the artificial membrane was 16 h. For all compounds reference values without phospholipid layer were individually determined. Concentrations in the acceptor compartments were measured by UV difference spectroscopy using a microtiter plate reader Spectramax Plus^384 from Molecular Devices. For each compound the λmax values were determined in a previous run and measurements were performed at this wavelength. The permeation rates are expressed as flux rates, which are calculated according to the following formula: flux (%)=OD (test well)/OD (control well)×100. […] Lucifer Yellow, a non-permeating dye, has been applied to each well postexperimentally and the concentration of the marker measured in a Wallac Victor^2 1420 Multilabel Counter. Wells, in which the concentration of Lucifer Yellow exceeded 1% of the amount detected in the control wells (without artificial membrane) were discarded.

[3] = tested on: hippocampal neurons; experiment: Gp120 model, neuronal count; type: in vivo, rat; details: CAIII layers, after ICV Gp120; 10 mg/kg/day
Experimental: (§5) Day 21. Three days later (recovery from the postoperative shock), the 30 rats were randomly divided into three group of 10 animals each: • the first group of 10 rats received an intracarotid injection of 1 ml/kg/day of normal saline for a period of 10 days. • the second group of 10 rats received 10 mg/kg/day of HCl-Gly-Phe-ProNH2 (dissolved in normal saline) for a period of 10 days. • the third group received 20 mg/kg/day of HCl-Gly-Phe-ProNH2 under the same conditions. The injections were given between 9.00 and 9.30 a.m.
Day 30. After the last learning session, the rats were sacrificed by means of decapitation, the brain was rapidly removed and frozen at […] in liquid nitrogen vapor. Brain sections were made by Cryocut at −20° C.
The sections are defrosted and stained with neutral red. After fixation, the number of neurons on one slice of the hippocampus was measured. The method is standardized by counting the neurons on the same slice. An index of the number of neurons compared to a control rat allows for a more reliable quantification than the simple counting.
The neurons are counted in the CAIII layers of the hippocampus. […] By definition, the value found in the control animals is 100 with a maximum variation of 5%.

[4] = tested on: type II glucocorticoid receptors in the hippocampus; experiment: Dexamethasone model, determination of the corticoid receptors; type: in vivo, rat; details: rats pretreated by dexamethasone, 20 mg/kg/day 10 days
Experimental: as §1
After the last learning session at 11.00 a.m., the rats were sacrificed by means of decapitation, and the hippocampi were quickly removed and put on a plate cooled to 0° C. The number of glucocorticoid receptors was determined by a binding method using a labeled corticoid and a specific inhibitor to the binding of the corticoid to the receptor (here a total agonist). The protein content was measured by Lowry's method.
The hippocampi of each rat were homogenized in 2 ml of sodium EDTA Glycerol molybdate buffer. […] An aliquot of the supernatant was diluted in distilled water, and the protein content was measured by Lowry's method. […]
After one night of incubation at 4° C., charcoal/dextran was added to absorb […] dexamethasone. After centrifugation, the radioactivity of the supernatant was measured by liquid scintillation. […]

[5] = tested on: rat treated by Gp120 as intracerebroventricular injection; experiment: Gp120 model, sound avoidance conditioning; type: in vivo; details: for AUC (average area under the learning curve per day) / percentage of adequate responses D0 / percentage of adequate responses D3 / percentage of adequate responses D4: Gp120 ICV; for percentage of adequate responses D0: learning day D0; for percentage of adequate responses D3: learning day D3; for percentage of adequate responses D4: learning day D4
Experimental: Day 0. The animals were slightly anesthetized by ether, an incision was made into the skin of the skull, and the skull was pierced by means of a dental burr. A metal needle was stereotaxically directed to the lateral ventricle, and then fixed by means of dental cement. Every day of the experiment, the patency of the needle was controlled.
Day 3. Three days after introducing the needle (recovery from the postoperative shock) the animals received an intra-ventricular injection of 10 nM/kg/day of Gp120 (dissolved in normal saline) in a volume of 20 μl. This administration was repeated daily for a period of five days.
Day 18. Ten days after the last administration of Gp120, the rats were chloralized (360 mg/kg). A permanent floating catheter was retrogradely introduced into the common carotid artery. This catheter left again on the top of the skull, where it was fixed.
as §5
Day 26 to 30. The animals of all three groups were placed under the common learning conditions of the entire protocol. The learning sessions took place between 10.00 a.m. and 11.00 a.m.
as §2, §3, §4

NCC(=O)N[C@@H](Cc1ccccc1)C(=O)N1CCC[C@H]1C(N)=O [HCl-Gly-Phe-ProNH2, glycyl-L-phenylalanyl-L-prolineamide] (H-Gly-Phe-Pro-NH2)
percentage of adequate responses D0 ([1]; dexamethasone 50 mg/kg/day oral 21 days, 20 mg/kg/day 10 days, learning day D0): 0%
effect on learning capacities ([1]; dexamethasone model): partially restores the learning capacities
AUC (average area under the learning curve per day) ([1]; dexamethasone model, 20 mg/kg/day 10 days): **35.0 +/− 3.1
percentage of adequate responses D1 ([1]; dexamethasone model, 20 mg/kg/day 10 days, learning day D1): 7 +/− 2%
percentage of adequate responses D2 ([1]; dexamethasone model, 20 mg/kg/day 10 days, learning day D2): **29 +/− 5%
percentage of adequate responses D3 ([1]; dexamethasone model, 20 mg/kg/day 10 days, learning day D3): **57 +/− 4%
percentage of adequate responses D4 ([1]; dexamethasone model, 20 mg/kg/day 10 days, learning day D4): **75 +/− 3%
PAMPA classification, predicted absorption after peroral application [2]: weakly absorbed
Counting of the hippocampal neurons (index, control animals = 100) [3]: 46 +/− 4
type II glucocorticoid receptors in the hippocampus [4]: **73 +/− 4 femtomols/mg of proteins
type II glucocorticoid receptors in the hippocampus ([4]; listed as HCL-GLY-PHE-PRONH2): reduces the down regulation of the glucocorticoid receptors
AUC (average area under the learning curve per day) ([5]; 10 mg/kg/day 10 days): **23.8 +/− 4.1
percentage of adequate responses D0 ([5]; 10 mg/kg/day 10 days): 0%
percentage of adequate responses D3 ([5]; 10 mg/kg/day 10 days): **35 +/− 4%
percentage of adequate responses D4 ([5]; 10 mg/kg/day 10 days): **55 +/− 7%
AUC (average area under the learning curve per day) ([5]; 20 mg/kg/day 10 days): **29.6 +/− 3.0
percentage of adequate responses D0 ([5]; 20 mg/kg/day 10 days): 0%
percentage of adequate responses D3 ([5]; 20 mg/kg/day 10 days): **48 +/− 5%
percentage of adequate responses D4 ([5]; 20 mg/kg/day 10 days): **70 +/− 5%
effect on learning parameters ([5]; Gp120 model, 10 and 20 mg/kg): restores the capacities of the animal depending on the dose
